Experimental data reported in ChEMBL document CHEMBL5154647, “Discovery of seneciobipyrrolidine derivatives for the amelioration of glucose homeostasis disorders through 4E-BP1/Akt/AMPK signaling activation” (Eur J Med Chem, 2022).

Experiments:
[1] = Microsomal stability in monkey liver microsomes assessed as half life preincubated with NADPH measured upto 60 mins by LC-MS analysis; format: ADME, Macaca mulatta, Microsome; conditions: rhesus monkey
[2] = Microsomal stability in mouse liver microsomes assessed as half life preincubated with NADPH measured upto 60 mins by LC-MS analysis; format: ADME, Microsome
L6 [3] = test: Induction of glucose uptake in rat L6 myoblasts at 20 uM measured after 2 hrs by liquid scintillation counter; format: functional
L6 [4] = test: Induction of glucose uptake in rat L6 myoblasts assessed as 2-DG concentration at 25 uM preincubated for 3 hrs and in presence of 2-deoxyglucose measured after 1 hrs by DNTB reagent based colorimetric assay; format: functional; conditions: time 4 hrs
[5] = Cmax in Sprague-Dawley rat at 20 mg/kg, po measured upto 10 hrs by LC/MS/MS analysis; format: ADME, organism-based; set-up: time < 10 hrs, dose 20 mg/kg, route po; conditions: in vivo
[6] = Tmax in Sprague-Dawley rat at 20 mg/kg, po measured upto 10 hrs by LC/MS/MS analysis; format: ADME, organism-based; conditions: in vivo
[7] = Oral bioavailability in Sprague-Dawley rat at 20 mg/kg measured upto 10 hrs by LC/MS/MS analysis; format: ADME, organism-based; conditions: in vivo
[8] = Cmax in Sprague-Dawley rat at 5 mg/kg, iv measured upto 24 hrs by LC/MS/MS analysis; format: ADME, organism-based; set-up: dose 5 mg/kg, time < 24 hrs, route iv; conditions: in vivo
[9] = AUC (0 to t) in Sprague-Dawley rat at 20 mg/kg, po measured upto 10 hrs by LC/MS/MS analysis; format: ADME, organism-based; set-up: time < 10 hrs, dose 20 mg/kg, route po; conditions: in vivo
[10] = Half life in Sprague-Dawley rat at 20 mg/kg, po measured upto 10 hrs by LC/MS/MS analysis; format: ADME, organism-based; conditions: in vivo
[11] = Half life in Sprague-Dawley rat at 5 mg/kg, iv measured upto 24 hrs by LC/MS/MS analysis; format: ADME, organism-based; conditions: in vivo
[12] = AUC (0 to t) in Sprague-Dawley rat at 5 mg/kg, iv measured upto 24 hrs by LC/MS/MS analysis; format: ADME, organism-based; set-up: dose 5 mg/kg, time < 24 hrs, route iv; conditions: in vivo
L6 [13] = test: Induction of glucose uptake in rat L6 myoblasts at 3 uM measured after 2 hrs by liquid scintillation counter; format: functional
L6 [14] = test: Induction of glucose uptake in rat L6 myoblasts preincubated for 3 hrs with compound and in presence of 2-deoxyglucose measured after 1 hrs by DNTB reagent based colorimetric assay; format: functional, cell-based

| SMILES | Activity (L6 [3]) [%] | Activity (L6 [4]) [pmol/µL] | other results |
| --- | --- | --- | --- |
| NC(=O)Cc1ccc(N2CC[C@@H]3[C@H]4CCCN4c4ccc(CC(N)=O)cc4[C@@H]32)cc1 (racemic) | – | – | half-life [1]: 0.578 h; half-life [2]: 3.12 h |
| COc1ccc2c(c1)[C@H]1[C@H](CCN1CCc1ccc(C)cc1)[C@H]1CCCN21 (racemic) | 86.3 | – | – |
| COc1ccc(N2CC[C@@H]3[C@@H]4CCCN4c4cc(O)c(OC)cc4[C@@H]32)cc1O (racemic) | 70.6 | – | – |
| COc1ccc2c(c1)[C@H]1[C@H](CCN1CCc1ccccc1)[C@H]1CCCN21 (racemic) | 55.9 | 23.4 | – |
| COc1ccc2c(c1)[C@H]1[C@H](CCN1C(=O)c1ccc(O)cc1)[C@H]1CCCN21 (racemic) | 86.7 | – | – |
| COc1ccc(N2CC[C@@H]3[C@H]4CCCN4c4ccc(OC)cc4[C@@H]32)cc1 (racemic) | 142.6 | – | – |
| COc1ccc2c(c1)[C@H]1[C@H](CCN1Cc1ccc3c(ccn3C)c1)[C@H]1CCCN21 (racemic) | 68.7 | 23.4 | Cmax [5]: 307 ng/mL; Tmax [6]: 0.4 h; bioavailability [7]: 9.5%; Cmax [8]: 981 ng/mL; AUC(0-t) at 10 h [9]: 561 ng·h/mL; half-life [10]: 11.9 h; half-life [11]: 7.6 h; AUC(0-t) at 24 h [12]: 1480 ng·h/mL |
| Cc1cccc(N2CC[C@@H]3[C@H]4CCCN4c4cc(C)ccc4[C@@H]32)c1 (racemic) | 76.4 | – | – |
| Fc1ccc(N2CC[C@@H]3[C@@H]4CCCN4c4ccc(F)cc4[C@@H]32)cc1 (racemic) | 58.3 | – | – |
| COc1ccccc1N1CC[C@@H]2[C@H]3CCCN3c3c(OC)cccc3[C@@H]21 (racemic) | 109.5 | – | – |
| COc1ccc2c(c1)[C@H]1[C@H](CCN1Cc1ccc(C)cc1)CN2C (racemic) | 80.6 | – | – |
| COc1ccc(CN2CC[C@@H]3[C@H]4CCCN4c4ccc(OC)cc4[C@@H]32)cc1 (racemic) | 15 | – | – |
| COc1ccc(N2CC[C@@H]3[C@@H]4CCCN4c4ccc(OC)cc4[C@@H]32)cc1 (racemic) | 46.2 | – | – |
| COc1ccc2c(c1)[C@H]1[C@H](CCN1C(=O)Cc1ccc(Cl)cc1)[C@H]1CCCN21 (racemic) | 98.1 | 33.1 | – |
| Cc1ccc(CN2CC[C@@H]3[C@H]4CCCN4c4ccc(C)cc4[C@@H]32)cc1 (racemic) | 149.2 | 59.6 | – |
| COc1cc2c(cc1OC)N1CCC[C@@H]1[C@H]1CCN(Cc3ccc(C)cc3)[C@@H]21 (racemic) | 34.2 | – | – |
| COc1ccc2c(c1)[C@H]1[C@H](CCN1Cc1ccccc1)[C@H]1CCCN21 (racemic) | 66.4 | 51.6 | – |
| COc1ccc2c(c1)[C@H]1[C@H](CCN1Cc1ccc(Cl)cc1)[C@H]1CCCN21 (racemic) | 22.3 | – | – |
| COc1cc(C[C@H]2C(=O)OC[C@@H]2Cc2ccc(OC)c(OC)c2)ccc1O [ARCTIGENIN] | – | 23.5 | Activity (L6 [13]): 146% |
| Cc1ccc(N2CC[C@@H]3[C@@H]4CCCN4c4ccc(C)cc4[C@@H]32)cc1 (racemic) | 63.5 | – | – |
| Cc1ccc(N2CC[C@@H]3[C@H]4CCCN4c4ccc(C)cc4[C@@H]32)cc1 (racemic) | 130.9 | 13.1 | – |
| COc1ccc2c(c1)[C@H]1[C@H](CCN1C(=O)c1ccc(C#N)cc1)[C@H]1CCCN21 (racemic) | 71.4 | 5.5 | – |
| COc1ccc2c(c1)[C@H]1[C@H](CCN1C(=O)c1ccc3ccccc3c1)[C@H]1CCCN21 (racemic) | 172.4 | 52.9 | EC50 (L6 [14]): 34.5 µM |
| Cc1ccc(CN2CC[C@@H]3[C@H]4CCCN4c4ccccc4[C@@H]32)cc1 (racemic) | 155.4 | – | – |
| COc1ccc2c(c1)[C@H]1[C@H](CCN1C(=O)Cc1ccc(C)cc1)[C@H]1CCCN21 (racemic) | 101.2 | – | – |
| COc1cccc(N2CC[C@@H]3[C@H]4CCCN4c4cc(OC)ccc4[C@@H]32)c1 (racemic) | 22.4 | – | – |
